According to ChEMBL document CHEMBL3885881, “DrugMatrix”:

Species on record: Rattus norvegicus
Type: toxicity, organism-based, Sprague-Dawley
Settings: in vivo, po, 24 h, route oral GAVAGE, time 1 day, vehicle .5 % CMC; for ABSOLUTE EOSINOPHIL / ABSOLUTE LYMPHOCYTE / ABSOLUTE MONOCYTE / BASOPHIL / EOSINOPHIL / ERYTHROCYTE COUNT / HEMATOCRIT / HEMOGLOBIN / LEUKOCYTE COUNT / LYMPHOCYTE / MEAN CORPUSCULAR HEMOGLOBIN / MEAN CORPUSCULAR HEMOGLOBIN CONCENTRATION / MEAN CORPUSCULAR VOLUME / MONOCYTE / NEUTROPHIL / PLATELET COUNT / ABSOLUTE BASOPHIL: tissue Blood; for ALANINE AMINOTRANSFERASE / ALBUMIN / ALKALINE PHOSPHATASE / ASPARTATE AMINOTRANSFERASE / BLOOD UREA NITROGEN / CARBON DIOXIDE / CHLORIDE / CHOLESTEROL / CREATINE PHOSPHOKINASE / CREATININE / GLUCOSE / LACTATE DEHYDROGENASE / LIPASE / PHOSPHORUS / POTASSIUM / SODIUM / TOTAL BILIRUBIN / TOTAL PROTEIN / URIC ACID: tissue Plasma
Description: DrugMatrix - Regimen: Single

## CN(C)CCN(Cc1cccs1)c1ccccn1
0 mg/kg, dose level Control
  ABSOLUTE EOSINOPHIL: 47.5 cells/µL
  ABSOLUTE LYMPHOCYTE: 8340 cells/µL
  ABSOLUTE MONOCYTE: 260 cells/µL
  BASOPHIL: 0.33%
  EOSINOPHIL: 0.45%
  ERYTHROCYTE COUNT: 6.31 x10E6/uL
  HEMATOCRIT: 42.88%
  HEMOGLOBIN: 13 G/DL
  LEUKOCYTE COUNT: 10.38 x10E3/uL
  LYMPHOCYTE: 80.53%
  MEAN CORPUSCULAR HEMOGLOBIN: 20.6 pg
  MEAN CORPUSCULAR HEMOGLOBIN CONCENTRATION: 30.3 G/DL
  MEAN CORPUSCULAR VOLUME: 67.9 fL
  MONOCYTE: 2.4%
  NEUTROPHIL: 15.08%
  PLATELET COUNT: 1192.5 x10E3/uL
  ALANINE AMINOTRANSFERASE: 47 u/L
  ALBUMIN: 3.55 G/DL
  ALKALINE PHOSPHATASE: 460.75 u/L
  ASPARTATE AMINOTRANSFERASE: 71.75 u/L
  BLOOD UREA NITROGEN: 13.75 mg/dL
  CARBON DIOXIDE: 36.75 mmol/L
  CHLORIDE: 107.25 MEQ/L
  CHOLESTEROL: 85.25 mg/dL
  CREATINE PHOSPHOKINASE: 373 u/L
  CREATININE: 0.67 mg/dL
  GLUCOSE: 173.25 mg/dL
  LACTATE DEHYDROGENASE: 241.25 u/L
  LIPASE: 39.25 u/L
  PHOSPHORUS: 13.5 mg/dL
  POTASSIUM: 6.9 MEQ/L
  SODIUM: 153 MEQ/L
  TOTAL BILIRUBIN: 0.3 mg/dL
  TOTAL PROTEIN: 6.05 G/DL
  URIC ACID: 1.07 mg/dL
10 mg/kg, dose level Low
  ABSOLUTE BASOPHIL: 50 cells/µL
  ABSOLUTE EOSINOPHIL: 57.5 cells/µL
  ABSOLUTE LYMPHOCYTE: 6900 cells/µL
  ABSOLUTE MONOCYTE: 160 cells/µL
  BASOPHIL: 0.62%
  EOSINOPHIL: 0.68%
  ERYTHROCYTE COUNT: 6.69 x10E6/uL
  HEMATOCRIT: 45.23%
  HEMOGLOBIN: 13.75 G/DL
  LEUKOCYTE COUNT: 8.71 x10E3/uL
  LYMPHOCYTE: 79.03%
  MEAN CORPUSCULAR HEMOGLOBIN: 20.57 pg
  MEAN CORPUSCULAR HEMOGLOBIN CONCENTRATION: 30.38 G/DL
  MEAN CORPUSCULAR VOLUME: 67.67 fL
  MONOCYTE: 1.82%
  NEUTROPHIL: 16.77%
  PLATELET COUNT: 1228.25 x10E3/uL
  ALANINE AMINOTRANSFERASE: 48.75 u/L
  ALBUMIN: 3.7 G/DL
  ALKALINE PHOSPHATASE: 472.25 u/L
  ASPARTATE AMINOTRANSFERASE: 65.25 u/L
  BLOOD UREA NITROGEN: 13 mg/dL
  CARBON DIOXIDE: 38.5 mmol/L
  CHLORIDE: 107.25 MEQ/L
  CHOLESTEROL: 86.75 mg/dL
  CREATINE PHOSPHOKINASE: 250.75 u/L
  CREATININE: 0.67 mg/dL
  GLUCOSE: 167 mg/dL
  LACTATE DEHYDROGENASE: 129.25 u/L
  LIPASE: 38.5 u/L
  PHOSPHORUS: 12.45 mg/dL
  POTASSIUM: 6.83 MEQ/L
  SODIUM: 153.75 MEQ/L
  TOTAL BILIRUBIN: 0.3 mg/dL
  TOTAL PROTEIN: 6.32 G/DL
  URIC ACID: 0.98 mg/dL
100 mg/kg, dose level High
  ABSOLUTE BASOPHIL: 130 cells/µL
  ABSOLUTE EOSINOPHIL: 55 cells/µL
  ABSOLUTE LYMPHOCYTE: 9590 cells/µL
  ABSOLUTE MONOCYTE: 430 cells/µL
  BASOPHIL: 0.95%
  EOSINOPHIL: 0.5%
  ERYTHROCYTE COUNT: 6.9 x10E6/uL
  HEMATOCRIT: 46.1%
  HEMOGLOBIN: 14.12 G/DL
  LEUKOCYTE COUNT: 11.89 x10E3/uL
  LYMPHOCYTE: 80.6%
  MEAN CORPUSCULAR HEMOGLOBIN: 20.48 pg
  MEAN CORPUSCULAR HEMOGLOBIN CONCENTRATION: 30.62 G/DL
  MEAN CORPUSCULAR VOLUME: 66.9 fL
  MONOCYTE: 3.62%
  NEUTROPHIL: 12.9%
  PLATELET COUNT: 1177.75 x10E3/uL
  ALANINE AMINOTRANSFERASE: 102.25 u/L
  ALBUMIN: 3.6 G/DL
  ALKALINE PHOSPHATASE: 460.75 u/L
  ASPARTATE AMINOTRANSFERASE: 150.5 u/L
  BLOOD UREA NITROGEN: 13.5 mg/dL
  CARBON DIOXIDE: 37.75 mmol/L
  CHLORIDE: 108 MEQ/L
  CHOLESTEROL: 61.5 mg/dL
  CREATINE PHOSPHOKINASE: 211.25 u/L
  CREATININE: 0.67 mg/dL
  GLUCOSE: 169.5 mg/dL
  LACTATE DEHYDROGENASE: 94.25 u/L
  LIPASE: 24.75 u/L
  PHOSPHORUS: 13.18 mg/dL
  POTASSIUM: 7.25 MEQ/L
  SODIUM: 154.25 MEQ/L
  TOTAL BILIRUBIN: 0.3 mg/dL
  TOTAL PROTEIN: 6.08 G/DL
  URIC ACID: 1.07 mg/dL
